test system: Colo205 human colon carcinoma cell line; experiment: In vitro tumor cell proliferation assay (MTS, CellTiter 96 Aqueous One Solution); format: cell-based; details: COLO 205, Colo205 cells, 72 hours compound exposure, MTS absorbance at 490 nm, read-out: IC50 (concentration of test compound required to inhibit proliferation of 50% of the cells)
Procedure, shortened: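 Proliferation measured as MTS tetrazolium reduction (490 nm) after 72 h compound exposure at 37 °C. Cells plated at 2000 per well in serum-supplemented RPMI-1640; duplicate 5-point dilutions topping out at 10-20 μM. Percent inhibition versus untreated and cell-free wells, IC50 derived by linear regression.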

`CCN(CC)Cc1ccc(-n2cc(C(=O)O)c(=O)c3cc(F)c(N4CCN(c5ccccc5C#N)CC4)c(OC)c32)cc1` [Example 117, 7-[4-(2-cyanophenyl)piperazin-1-yl]-1-{4-[(diethylamino)methyl]phenyl}-6-fluoro-8-methoxy-4-oxo-1,4-dihydroquinoline-3-carboxylic acid] and `CCN(CC)Cc1ccc(-n2cc(C(=O)O)c(=O)c3cc(F)c(N4CCN(c5ccc(Cl)cc5)CC4)c(OC)c32)cc1` [Example 118, 7-[4-(4-chlorophenyl)piperazin-1-yl]-1-{4-[(diethylamino)methyl]phenyl}-6-fluoro-8-methoxy-4-oxo-1,4-dihydroquinoline-3-carboxylic acid] cannot be ordered by IC50: less than 500 nM for the first, less than 500 nM for the second.

`O=C(O)c1cn(-c2ccc(CN3CCCC3)cc2)c2c(OC(F)(F)F)c(N3CCN(c4cccc(Cl)c4)CC3)c(F)cc2c1=O` [Example 119, 7-[4-(3-chlorophenyl)piperazin-1-yl]-6-fluoro-4-oxo-1-[4-(pyrrolidin-1-ylmethyl)phenyl]-8-(trifluoromethoxy)-1,4-dihydroquinoline-3-carboxylic acid] and `O=C(O)c1cn(-c2ccc(CN3CCCC3)cc2)c2c(OC(F)(F)F)c(N3CCN(c4ccc(F)cc4)CC3)c(F)cc2c1=O` [Example 121, 6-fluoro-7-[4-(4-fluorophenyl)piperazin-1-yl]-4-oxo-1-[4-(pyrrolidin-1-ylmethyl)phenyl]-8-(trifluoromethoxy)-1,4-dihydroquinoline-3-carboxylic acid] cannot be ordered by IC50: less than 500 nM for the first, less than 500 nM for the second.

`Cc1cccc(N2CCN(c3c(F)cc4c(=O)c(C(=O)O)cn(-c5ccc(CN6CCCC6)cc5)c4c3OC(F)(F)F)CC2)n1` [Example 120, 6-fluoro-7-[4-(6-methylpyridin-2-yl)piperazin-1-yl]-4-oxo-1-[4-(pyrrolidin-1-ylmethyl)phenyl]-8-(trifluoromethoxy)-1,4-dihydroquinoline-3-carboxylic acid] and `O=C(O)c1cn(-c2ccc(CN3CCCC3)cc2)c2c(OC(F)(F)F)c(N3CCN(c4ccccn4)CC3)c(F)cc2c1=O` [Example 124, 6-fluoro-4-oxo-7-(4-pyridin-2-yl-piperazin-1-yl)-1-[4-(pyrrolidin-1-ylmethyl)phenyl]-8-(trifluoromethoxy)-1,4-dihydroquinoline-3-carboxylic acid] cannot be ordered by IC50: less than 500 nM for the first, less than 500 nM for the second.

`Cc1cccnc1N1CCN(c2c(F)cc3c(=O)c(C(=O)O)cn(-c4ccc(CN5CCCC5)cc4)c3c2OC(F)(F)F)CC1` [Example 122, 6-fluoro-7-[4-(3-methylpyridin-2-yl)-piperazin-1-yl]-4-oxo-1-[4-(pyrrolidin-1-ylmethyl)phenyl]-8-(trifluoromethoxy)-1,4-dihydroquinoline-3-carboxylic acid] and `N#Cc1cccnc1N1CCN(c2c(F)cc3c(=O)c(C(=O)O)cn(-c4ccc(CN5CCCC5)cc4)c3c2OC(F)(F)F)CC1` [Example 125, 7-[4-(3-cyanopyridin-2-yl)piperazin-1-yl]-6-fluoro-4-oxo-1-[4-(pyrrolidin-1-ylmethyl)phenyl]-8-(trifluoromethoxy)-1,4-dihydroquinoline-3-carboxylic acid] cannot be ordered by IC50: less than 500 nM for the first, less than 500 nM for the second.

`O=C(O)c1cn(-c2ccc(CN3CCCC3)cc2)c2c(OC(F)(F)F)c(N3CCN(c4ncccn4)CC3)c(F)cc2c1=O` [Example 123, 6-fluoro-4-oxo-7-(4-pyrimidin-2-yl-piperazin-1-yl)-1-[4-(pyrrolidin-1-ylmethyl)phenyl]-8-(trifluoromethoxy)-1,4-dihydroquinoline-3-carboxylic acid] and `C[C@H]1CCCCN1Cc1ccc(-n2cc(C(=O)O)c(=O)c3cc(F)c(N4CCN(c5ncccn5)CC4)c(OC(F)(F)F)c32)cc1` [Example 139, 6-fluoro-1-(4-{[(2S)-2-methylpiperidin-1-yl]methyl}phenyl)-4-oxo-7-(4-pyrimidin-2-ylpiperazin-1-yl)-8-(trifluoromethoxy)-1,4-dihydroquinoline-3-carboxylic acid] cannot be ordered by IC50: less than 500 nM for the first, less than 500 nM for the second.

`CN(C)Cc1ccc(-n2cc(C(=O)O)c(=O)c3cc(F)c(N4CCN(c5ccccn5)CC4)c(OC(F)(F)F)c32)cc1` [Example 126, 1-{4-[(dimethylamino)methyl]phenyl}-6-fluoro-4-oxo-7-(4-pyridin-2-ylpiperazin-1-yl)-8-(trifluoromethoxy)-1,4-dihydroquinoline-3-carboxylic acid] and `CCN(CC)Cc1ccc(-n2cc(C(=O)O)c(=O)c3cc(F)c(N4CCN(c5ccccn5)CC4)c(OC(F)(F)F)c32)cc1` [Example 132, 1-{4-[(diethylamino)methyl]phenyl}-6-fluoro-4-oxo-7-(4-pyridin-2-ylpiperazin-1-yl)-8-(trifluoromethoxy)-1,4-dihydroquinoline-3-carboxylic acid] cannot be ordered by IC50: less than 500 nM for the first, less than 500 nM for the second.

Compared with `Cc1cccc(N2CCN(c3c(F)cc4c(=O)c(C(=O)O)cn(-c5ccc(CN(C)C)cc5)c4c3OC(F)(F)F)CC2)n1` [Example 127, 1-{4-[(dimethylamino)methyl]phenyl}-6-fluoro-7-[4-(6-methylpyridin-2-yl)piperazin-1-yl]-4-oxo-8-(trifluoromethoxy)-1,4-dihydroquinoline-3-carboxylic acid], `Cc1cccnc1N1CCN(c2c(F)cc3c(=O)c(C(=O)O)cn(-c4ccc(CN(C)C)cc4)c3c2OC(F)(F)F)CC1` [Example 129, 1-{4-[(dimethylamino)methyl]phenyl}-6-fluoro-7-[4-(3-methylpyridin-2-yl)piperazin-1-yl]-4-oxo-8-(trifluoromethoxy)-1,4-dihydroquinoline-3-carboxylic acid] is higher in IC50: less than 500 nM for the first, 500 to 2000 nM for the second. The first is the more potent here.

`CN(C)Cc1ccc(-n2cc(C(=O)O)c(=O)c3cc(F)c(N4CCN(c5ncccn5)CC4)c(OC(F)(F)F)c32)cc1` [Example 128, 1-{4-[(dimethylamino)methyl]phenyl}-6-fluoro-4-oxo-7-(4-pyrimidin-2-ylpiperazin-1-yl)-8-(trifluoromethoxy)-1,4-dihydroquinoline-3-carboxylic acid] and `CN(C)Cc1ccc(-n2cc(C(=O)O)c(=O)c3cc(F)c(N4CCN(c5cccc(Cl)c5)CC4)c(OC(F)(F)F)c32)cc1` [Example 130, 7-[4-(3-chlorophenyl)piperazin-1-yl]-1-{4-[(dimethylamino)methyl]phenyl}-6-fluoro-4-oxo-8-(trifluoromethoxy)-1,4-dihydroquinoline-3-carboxylic acid] cannot be ordered by IC50: less than 500 nM for the first, less than 500 nM for the second.

`CN(C)Cc1ccc(-n2cc(C(=O)O)c(=O)c3cc(F)c(N4CCN(c5ccc(F)cc5)CC4)c(OC(F)(F)F)c32)cc1` [Example 131, 1-{4-[(dimethylamino)methyl]phenyl}-6-fluoro-7-[4-(4-fluorophenyl)piperazin-1-yl]-4-oxo-8-(trifluoromethoxy)-1,4-dihydroquinoline-3-carboxylic acid] and `CCN(CC)Cc1ccc(-n2cc(C(=O)O)c(=O)c3cc(F)c(N4CCN(c5ccccc5)CC4)c(OC(F)(F)F)c32)cc1` [Example 138, 1-{4-[(diethylamino)methyl]phenyl}-6-fluoro-4-oxo-7-(4-phenylpiperazin-1-yl)-8-(trifluoromethoxy)-1,4-dihydroquinoline-3-carboxylic acid] cannot be ordered by IC50: less than 500 nM for the first, less than 500 nM for the second.

First: CCN(CC)Cc1ccc(-n2cc(C(=O)O)c(=O)c3cc(F)c(N4CCN(c5cc(Cl)ccc5C)CC4)c(OC(F)(F)F)c32)cc1 [Example 134, 7-[4-(5-chloro-2-methylphenyl)piperazin-1-yl]-1-{4-[(diethylamino)methyl]phenyl}-6-fluoro-4-oxo-8-(trifluoromethoxy)-1,4-dihydroquinoline-3-carboxylic acid]
Second: CCN(CC)Cc1ccc(-n2cc(C(=O)O)c(=O)c3cc(F)c(N4CCN(c5cccc(Cl)c5)CC4)c(OC(F)(F)F)c32)cc1 [Example 136, 7-[4-(3-chlorophenyl)piperazin-1-yl]-1-{4-[(diethylamino)methyl]phenyl}-6-fluoro-4-oxo-8-(trifluoromethoxy)-1,4-dihydroquinoline-3-carboxylic acid]
The IC50 of the first is higher: 500 to 2000 nM for the first, less than 500 nM for the second. The second is the more potent here.

`CCN(CC)Cc1ccc(-n2cc(C(=O)O)c(=O)c3cc(F)c(N4CCN(c5ccccc5F)CC4)c(OC(F)(F)F)c32)cc1` [Example 135, 1-{4-[(diethylamino)methyl]phenyl}-6-fluoro-7-[4-(2-fluorophenyl)piperazin-1-yl]-4-oxo-8-(trifluoromethoxy)-1,4-dihydroquinoline-3-carboxylic acid] and `CCN(CC)Cc1ccc(-n2cc(C(=O)O)c(=O)c3cc(F)c(N4CCN(c5ccc(F)cc5F)CC4)c(OC(F)(F)F)c32)cc1` [Example 137, 1-{4-[(diethylamino)methyl]phenyl}-7-[4-(2,4-difluorophenyl)piperazin-1-yl]-6-fluoro-4-oxo-8-(trifluoromethoxy)-1,4-dihydroquinoline-3-carboxylic acid] cannot be ordered by IC50: less than 500 nM for the first, less than 500 nM for the second.

`O=C(O)c1cn(-c2cccc(CN3CCCCC3)c2)c2c(OC(F)(F)F)c(N3CCN(c4ccccn4)CC3)c(F)cc2c1=O` [Example 140, 6-fluoro-4-oxo-1-[3-(piperidin-1-yl-methyl)phenyl]-7-(4-pyridin-2-ylpiperazin-1-yl)-8-(trifluoromethoxy)-1,4-dihydroquinoline-3-carboxylic acid] and `O=C(O)c1cn(-c2cccc(CN3CCCCC3)c2)c2c(OC(F)(F)F)c(N3CCN(c4ccc(F)cc4)CC3)c(F)cc2c1=O` [Example 141, 6-fluoro-7-[4-(4-fluorophenyl)piperazin-1-yl]-4-oxo-1-[3-(piperidin-1-ylmethyl)phenyl]-8-(trifluoromethoxy)-1,4-dihydroquinoline-3-carboxylic acid] fall in the same range of IC50: 500 to 2000 nM for the first, 500 to 2000 nM for the second.

`O=C(O)c1cn(-c2cccc(CN3CCCCC3)c2)c2c(OC(F)(F)F)c(N3CCN(c4ccc(F)cc4F)CC3)c(F)cc2c1=O` [Example 142, 7-[4-(2,4-difluorophenyl)piperazin-1-yl]-6-fluoro-4-oxo-1-[3-(piperidin-1-ylmethyl)phenyl]-8-(trifluoromethoxy)-1,4-dihydroquinoline-3-carboxylic acid] was tested, and the IC50 was 2000 to 20000 nM.
